Earlier results, collected in patent publication US20250108061A1, “METHOD FOR TREATING ENDOMETRIOSIS AND PROVIDING EFFECTIVE CONTRACEPTION” (CHEMO RESEARCH, S.L., priority 2021, published 2025).

Columns and labels:
[1] = tested on: women
[2] = tested on: women; conditions: at high dosages (5-15 mg/daily)

| Compound | ovulation inhibition / ovarian activity ([1]; 2 mg daily) | androgenic side effects [2] | dosage necessary for ovulation inhibition ([1]; given continuously over 28 days) [mg/daily] |
| --- | --- | --- | --- |
| C[C@]12CCC3=C4CCC(=O)C=C4CC[C@H]3[C@@H]1CC[C@@]2(O)CC#N [DNG, Dienogest] | provides ovulation inhibition, but ovarian activity is not completely suppressed | – | – |
| C#C[C@]1(OC(C)=O)CC[C@H]2[C@@H]3CCC4=CC(=O)CC[C@@H]4[C@H]3CC[C@@]21C [NETA, norethisterone acetate] | – | can produce androgenic side effects, such as acne, hirsutism, weight gain and voice changes of slight severity in some women | 0.35 |
